Patent publication US20100255020A1, “METHOD FOR INDUCING CYTOTOXIC T-CELLS, CYTOTOXIC T-CELL INDUCERS, AND PHARMACEUTICAL COMPOSITIONS AND VACCINES EMPLOYING THEM” (NEC CORPORATION, priority 2007, published 2010)
Where no end group is shown, it is not given here.

Experiments:
[1] = test system: HLA-A*2402 positive cell lines that express WT1 naturally (KAZZ, KCL22, KH88, MEG01); assay: Reactivity of WT1 peptide-specific cell lines toward tumor cells (IFN-γ ELISPOT); format: cell-based, human; conditions: cell lines established from HLA-A*2402 positive patients, FIG. 5
Text: Reactions of cell lines established from different patients are arranged in a bar graph.

HLA-A*0201 molecule = HLA-A*0201 molecule (Homo sapiens, UniProt P04439, D140Y/D185E/D98H/E176V/E277Q/G131W/G231S/I119V/I121R/I166T/I218V/L300P/L318F/N151K/N90K/P208A/P217A/Q86G/Q94H/R138H/R169H/T345S); assay: Peptide binding to HLA-A*0201 molecule on JY cells (flow cytometry, Kd); conditions: HLA-A*0201, JY cells; read-out: Binding assay data (−log Kd) (converted)
Experimental: The ability of a peptide to bind to an HLA-A*0201 molecule, which is a product of the HLA-A*0201 gene, was measured using strain JY cells expressing the HLA-A*0201 molecule.
JY cells were first exposed to acidic conditions at a pH of 3.8 for 30 seconds, thus dissociating and removing a β2m light chain and an endogenous peptide, which were noncovalently associated with the HLA-A* 0201 molecule. After neutralization, a reconstitution experiment was carried out.
The above-mentioned JY cells and the purified […] were added to serial dilutions of peptide for which the binding ability needs to be measured, and incubation was carried out on ice for 4 hours. HLA-A*0201 molecules that had reassociated up to this time point were stained using the fluorescently-labeled monoclonal antibody BB7.2, a conformation dependent monoclonal Ab specific for an assembled form of HLA-A*0201 molecule.
Subsequently, the amount of fluorescence per cell was measured using a flow cytometer and a dissociation constant Kd value was calculated by a method published in the literature (Udaka et al., Immunogenetics, 51, 816-828, 2000).

HLA-A*0206 molecule = target: T1, HLA-A*0206 molecule (Homo sapiens, UniProt P04439, D140Y/D185E/D98H/E176V/E277Q/F33Y/G131W/G231S/I119V/I121R/I166T/I218V/L300P/L318F/N151K/N90K/P208A/P217A/Q86G/Q94H/R138H/R169H/T345S); assay: Peptide binding to HLA-A*0206 molecule on RA2.6 cells (flow cytometry, Kd); conditions: HLA-A*0206, RA2.6 cells; read-out: Binding assay data (−log Kd) (converted)
T1 construct: expressed in transfected cells; host or cells: RA2.6 (mouse TAP-deficient RMAS cells transfected with pMKITneo bearing HLA-A*0206 cDNA)
Experimental: The ability of a peptide to bind to an HLA-A*0206 molecule, which is a product of the HLA-A*0206 gene, was measured using RA2.6 cells (cell line newly generated in Kochi University), wherein cDNA of the HLA-A*0206 gene is introduced into RMAS, which is a mouse TAP (transporter associated with antigen processing)-deficient cell line.
RA2.6 cells were first cultured overnight at 26° C., during this incubation HLA-A*0206 molecules devoid of bound peptide accumulated. Serial dilutions of peptide were added to these cells and peptide binding was carried out at room temperature for 30 minutes.
Subsequently, culture was carried out at 37° C. for 3.5 hours, during this incubation empty HLA-A*0206 molecules to which no peptide was bound were denatured, and the tertiary structure was lost.
The cells were stained by adding thereto fluorescently-labeled monoclonal antibody BB7.2, which specifically recognizes the peptide-bound HLA-A*0206 molecule, and incubating on ice for 20 minutes.
Subsequently, the amount of fluorescence per cell was measured using a flow cytometer, and a dissociation constant Kd value was calculated by a method published in the literature (Udaka et al., Immunogenetics, 51, 816-828, 2000).

HLA-A*2402 molecule = HLA-A*2402 molecule (Homo sapiens, UniProt P04439, D101N/D140Y/D185E/E176V/E190D/F33S/G103R/G107R/I119L/I121M/I306V/K335N/L105A/L180Q/L300P/N151K/N90K/Q86E/Q94H/R106L/R138H/R89G/T104I/T345S/V100E/W191G/Y123F); assay: Peptide binding to HLA-A*2402 molecule on C1R-A24 cells (flow cytometry, Kd); conditions: HLA-A*2402, C1R-A24 cells; read-out: Binding assay data (−log Kd) (converted)
Experimental: The ability of a peptide to bind to an HLA-A*2402 molecule, which is a product of the HLA-A*2402 gene, was measured using C1R-A24 cells expressing the HLA-A*2402 molecule (cells generated by Professor Masafumi Takiguchi, Kumamoto University being supplied with permission by Associate Professor Masaki Yasukawa, Ehime University).
C1R-A24 cells were first exposed to acidic conditions at a pH of 3.3 for 30 seconds, thus dissociating and removing a β2m light chain, which is associated with HLA class I molecules in common, and an endogenous peptide originally bound to the HLA-A*2402 molecule. After neutralization, purified β2m was added to C1R-A24 cells, the obtained product was added to serial dilutions of a peptide, and incubated on ice for 4 hours. […]
Subsequently, the number of MHC-pep complexes per C1R-A24 cell (proportional to the intensity of fluorescence of the above-mentioned fluorescent antibody) was quantitatively measured using a FACScan fluorescence-activated flow cytometer (Becton Dickinson Biosciences). A dissociation constant Kd value between the HLA-A*2402 molecule and the peptide was calculated from the average intensity of fluorescence per cell by a method published in the literature (Udaka et al., Immunogenetics, 51, 816-828, 2000).

[2] = test system: peptide-loaded target cells (C1R-A24, RA24, T2); assay: 51Cr release assay of PBMC killing activity against peptide-loaded target cells; format: cell-based, human
Experimental: Target cells were labeled with ^51Cr and loaded with HLA-binding peptide of interest. 5,000 or 10,000 cells/well of target cells were placed in 96-well U-bottom plate, and then, PBMCs having been stimulated twice in vitro were added thereto as a responder. Cells were incubated at 37° C. for 5 hours and ^51Cr released from the damaged cells during the incubation was measured, and % specific lysis was calculated. As target cells C1R-A24 or RA24 cells were used as a target when reactivity to HLA-A*2402 binding peptides were examined, and T2 cells were used as a target and incubation was carried out for 2 hours after addition of responder cells. Percent specific lysis was calculated as follows. % specific lysis=(test release-spontaneous release)/(total release-spontaneous release)×100.

malignant tumors = assay: Peptide immunotherapy of patients, tumor response by RECIST criteria (CT/MRI); format: in vivo, human; design: key to RECIST, single lung metastasis / RECIST, total sum of longest diameters of 10 metastatic target lesions / RECIST, pubic bone metastatic tumor / RECIST determination 3 months after starting W10 peptide therapy: CR: all target lesions have disappeared; PR: the sum of the longest diameters of the target lesions decreases by at least 30%; PD: the sum of the longest diameters of the target lesions increases by at least 20%; SD: the change of tumr size is between PR or PD
Experimental: Among 18 patients, 3 people are illustrated in the style of case reports. […] The mixture was prepared immediately prior to administration. When W10 peptide was administered without petussis vaccine in the safety test, W10 peptide solution was divided into 4 equal portions and injected intradermally at 4 locations in the same manner. A method to measure the diameter of a tumor and a method to analyze peptide-specific T-cells using an HLA-A24 tetramer by flow cytometry are described below.
The international RECIST criteria referred to here is an evaluation standard described in Theresse, P. et al., J Natl Cancer Inst. 2000, 92, 205-216. When there is confirmation by helical CT or MRI that all target lesions have disappeared this is defined as CR (complete response), when the sum of the longest diameters of the target lesions decreases by at least 30% this is defined as PR (partial response), when the sum of the longest diameters of the target lesions increases by at least 20% this is defined as PD (progressive disease), and when the change of tumr size is between PR or PD this is defined as SD (stable disease). However, regardless of the presence or absence of a change in the target lesions, when even one new lesion appears this is defined as PD.
Based on the above-mentioned international RECIST criteria, which is used for evaluation of anticancer drugs, all measurable tumors were selected as target tumors, and change in the SLD of the tumors over the course of the therapy was monitored. In addition, number of all the tumors was counted, regardless of the size of a tumor, every time diagnostic imaging was carried out in order to lookout for new lesions. Diagnostic imaging was carried out in principle once a month by helical CT or MRI. If even one new metastasis appeared, regardless of the change in the primary lesion, it was judged as PD.
Clinical responses were evaluated according to the aforementioned international RECIST criteria for 18 patients who had been treated by immunotherapy using W10+Wc for at least 3 months and one week. Eight cased out of 18 patients were judged as SD, 10 cased were PD. […] In reports on peptide immunotherapy so far, the tumor control rate was limited to a few % up to ten or so % worldwide (Reference Documents 1 to 4). Compared with these already reported cases, this is a good reaction.

[3] = HLA-A*2402 binding peptides, FIG. 9a and b

Sequence	Reactivity of peptide-dependent cell line toward WT1-expressing cell lines compared with C1R-A24 [1]	Kd (HLA-A*0201 molecule)	Kd (HLA-A*0206 molecule)	Kd (HLA-A*2402 molecule)	Peptide-reactive cytolytic cells in PBMCs of patients ([2]; HLA-A*0201 binding peptides, T2 targets)	Peptide-reactive cytolytic cells in PBMCs of patients [2, 3]	Effect of immunotherapy on tumor (malignant tumors; patient KB07-005, prostate cancer, 235Y from December 2006)	Primary tumor by MRI (malignant tumors; patient KB07-006, 3 mg 235Y emulsified with Montanide, weekly intradermal, 4th week)	RECIST, single lung metastasis (malignant tumors; patient KB07-006, 235Y immunization for 10 months)	Primary tumor on continued immunization (malignant tumors; patient KB07-006, 235Y weekly, no recurrence at three and a half years)
RVPGVAPTL [W302]	tends to be higher although differences are small	389 nM	245 nM	21.4 nM	contain cytolytic cells that recognize	cytolytic cells include those reactive	–	–	–	–
GVFRGIQDV [W292]	–	–	331 nM	–	–	–	–	–	–	–
CYTWNQMNL (listed as Homo sapiens) [235Y, reference compound]	tends to be higher although differences are small	–	–	–	–	cytolytic cells include those reactive	no effect	apparent reduction of the primary tumor	SD	disappeared
